According to US12370170B2, “Composition comprising naphthoquinone-based compound as active ingredient, for preventing or ameliorating fatigue, cachexia, pain, cognitive decline and hematopoietic stem cell reduction which are side effects related to anticancer drug treatment” (NADIANBIO LTD., priority 2016, dated 2025):

Experiments:
Format in all cases: in vivo, C57BL/6 mice
[1] = tested on: inflammatory cytokines TNF-α, IL-1β, IL-6 and IL-17; experiment: Plasma inflammatory cytokines by ELISA in adriamycin animal model; settings: adriamycin 4 mg/kg/day i.p. ×3; compound 20 mg/kg oral daily from 3 days before; 4 days after final adriamycin; vs adriamycin group
Method: (§1) In this invention, 11 weeks old C57BL/6 mice were used. All the mice used in the experiments of the invention were raised in an aseptic animal room at the temperature of 22˜26 L with the humidity of 55˜60%. The mice were allowed to take general solid feed (SAMTACO Co., Ltd., Korea) and water freely. The mice were adapted for 1 week before the experiment. All the experiments were performed after obtaining approval from the clinical trial management committee in accordance with the laboratory animal care and ethics regulations of Wonkwang University. The mouse animal model of the present invention was treated with different anticancer drugs. […]
Particularly, plasma was isolated from the adriamycin animal model prepared by the same manner as described in Example 4, and the inflammatory cytokines TNF-α (R&D Systems, MTA00B), IL-1β (R&D Systems, MLB00C), IL-6 (R&D Systems, M6000B) and IL-17 (R&D Systems, M1700) were analyzed by ELISA (enzyme-linked immunosorbent assay).
To investigate the regulatory effect of β-lapachone on adriamycin induced inflammatory cytokines, plasma was isolated from the adriamycin animal model prepared by the same manner as described in Example 4, and the inflammatory cytokines TNF-α, IL-1β, IL-6 and IL-17 were analyzed by ELISA.

[2] = tested on: inflammatory cytokines TNF-α, IL-1β, IL-6 and IL-17; experiment: Plasma inflammatory cytokines by ELISA in 3× and 6×ACP animal model; settings: dunnione 20 mg/kg oral daily from 3 days before, 3 days after ACP
Method: as §1, with “drugs. Particularly, one kind of anticancer drug was administered intraperitoneally one time or more, or several kinds of anticancer drugs were administered once or more times or at different concentrations, leading to the establishment of the animal model of the invention.” for “drugs.”
Plasma was isolated from the 3× and 6×ACP animal model prepared by the same manner as described in Example 7, and the inflammatory cytokines TNF-α, IL-1β, IL-6 and IL-17 were analyzed by ELISA.

[3] = tested on: inflammatory cytokines TNF-α, IL-1β, IL-6 and IL-17; experiment: Plasma inflammatory cytokines by ELISA in gemcitabine (500 mg/kg) animal model; settings: gemcitabine 500 mg/kg i.p. once; dunnione 20 mg/kg oral daily from 3 days before; 2 days after gemcitabine; vs gemcitabine group
Method: as §1, with “drugs. Particularly, one kind of anticancer drug was administered intraperitoneally one time or more, or several kinds of anticancer drugs were administered once or more times or at different concentrations, leading to the establishment of the animal model of the invention.” for “drugs.”
Plasma was isolated from the gemcitabine animal model prepared by the same manner as described in Example 5, and the inflammatory cytokines TNF-α, IL-1β, IL-6 and IL-17 were analyzed by ELISA.

[4] = tested on: bone marrow cells and hematopoietic stem/progenitor cells; experiment: Bone marrow hematopoietic stem cell reduction by flow cytometry, 3×ACP animal model; settings: 2 days after ACP
Method: In this invention, 11 weeks old C57BL/6 mice were used. All the mice used in the experiments of the invention were raised in an aseptic animal room at the temperature of 22˜26 L with the humidity of 55˜60%. The mice were allowed to take general solid feed (SAMTACO Co., Ltd., Korea) and water freely. The mice were adapted for 1 week before the experiment. All the experiments were performed after obtaining approval from the clinical trial management committee in accordance with the laboratory animal care and ethics regulations of Wonkwang University. The mouse animal model of the present invention was treated with different anticancer drugs. Particularly, one kind of anticancer drug was administered intraperitoneally one time or more, or several kinds of anticancer drugs were administered once or more times or at different concentrations, leading to the establishment of the animal model of the invention. In the adriamycin-induced animal model, the mice were divided into 6 groups as follows: the control group administered with PBS (Control, 5 mice), the group administered intraperitoneally with adriamycin (4 mg/kg/day) 3 times (ADR, 5 mice), the group administered orally with dunnione or β-lapachone from 3 days before the adriamycin treatment daily (20 mg/kg, 5 mice), and the group administered with dunnione or β-lapachone (20 mg/kg, 5 mice). 4 days after the final adriamycin treatment, analysis of the mice was performed.
In the 3×ACP induced animal model for the analysis of bone marrow hematopoietic stem cell protective effect, the mice were divided into 4 groups as follows: the control group administered with PBS (Control, 4 mice), the group administered intraperitoneally with 3×ACP once (3×ACP, 4 mice), the group administered orally with dunnione from 3 days before the 3×ACP treatment daily (20 mg/kg, 4 mice), and the group administered with dunnione (20 mg/kg, 4 mice). 2 days after the ACP treatment, analysis of the mice was performed. […]
As a result, as shown in FIG. 9 presenting the results of flow cytometry for the quantitative analysis of bone marrow hematopoietic cells, the region where lineage negative cells were distributed was gated. […] Next, hematopoietic stem cells and multipotent progenitor cells were separated and analyzed, leading to the analysis of multipotent progenitor cell-4 (MPP4) and hematopoietic stem cell/progenitor cell (HSPC). With the hematopoietic stem cell/progenitor cell group, long-term hematopoietic stem cells (HSC^LT), short-term hematopoietic stem cells (HSC^ST), and multipotent progenitor cell-2 and -3 (MPP2 and MPP3) were analyzed. In FIG. 9, the results of flow cytometry analyzed for each group are presented. […]

Structure (SMILES): CC1OC2=C(C(=O)C(=O)c3ccccc32)C1(C)C (centres unmarked) [dunnione, 2,3-dihydro-2,3,3-trimethyl naphtho [1,2-b]furan-4,5-dione]
- level of inflammatory cytokines (TNF-α, IL-1β, IL-6, IL-17) in plasma [1]: significantly reduced
- level of inflammatory cytokines (TNF-α, IL-1β, IL-6, IL-17) in plasma ([2]; 3×ACP i.p. once): significantly inhibited
- level of inflammatory cytokines (TNF-α, IL-1β, IL-6, IL-17) in plasma ([2]; 6×ACP i.p. once): significantly inhibited
- level of inflammatory cytokines (TNF-α, IL-1β, IL-6, IL-17) in plasma [3]: significantly reduced
- total bone marrow cell number, increase relative to the group treated with the anticancer drugs ([4]; 3×ACP + dunnione 20 mg/kg oral daily from 3 days before): at least three times
- number of hematopoietic stem cell/progenitor cell, increase by dunnione ([4]; 3×ACP + dunnione 20 mg/kg oral): as much as three times
- number of long-term hematopoietic stem cells (HSC^LT), increase relative to the group treated with the anticancer drugs ([4]; 3×ACP + dunnione 20 mg/kg oral): at least 2 times
- number of short-term hematopoietic stem cells (HSC^ST), increase relative to the group treated with the anticancer drugs ([4]; 3×ACP + dunnione 20 mg/kg oral): ≥ 8 times
